From ChEMBL document CHEMBL3112438, “Structure-based optimization of cyclopropyl urea derivatives as potent soluble epoxide hydrolase inhibitors for potential decrease of renal injury without hypotensive action” (Bioorg Med Chem, 2014)
Active and inactive are the calls of the source. The rule behind the calls is not given here.

Key:
[1] = target: T1, Bifunctional epoxide hydrolase 2 (Rattus norvegicus, UniProt P80299); assay: Inhibition of rat recombinant soluble epoxide hydrolase after 1 hr by fluorescence assay
T1 sequence (P80299 whole entry): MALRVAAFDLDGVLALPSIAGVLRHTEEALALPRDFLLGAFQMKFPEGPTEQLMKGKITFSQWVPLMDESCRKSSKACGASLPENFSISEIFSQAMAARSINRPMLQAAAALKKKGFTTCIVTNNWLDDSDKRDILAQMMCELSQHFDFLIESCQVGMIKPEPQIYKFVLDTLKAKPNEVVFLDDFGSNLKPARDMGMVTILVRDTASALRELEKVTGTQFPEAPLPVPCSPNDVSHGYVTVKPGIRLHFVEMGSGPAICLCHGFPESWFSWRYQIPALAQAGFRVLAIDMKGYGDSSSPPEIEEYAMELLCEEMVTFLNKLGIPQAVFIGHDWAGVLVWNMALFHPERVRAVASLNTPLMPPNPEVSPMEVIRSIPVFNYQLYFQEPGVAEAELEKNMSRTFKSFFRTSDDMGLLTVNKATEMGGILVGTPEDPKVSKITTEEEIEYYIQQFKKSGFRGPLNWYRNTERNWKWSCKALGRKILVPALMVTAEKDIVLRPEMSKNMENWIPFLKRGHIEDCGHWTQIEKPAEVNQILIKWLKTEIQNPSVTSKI

[2] = target: T2, Bifunctional epoxide hydrolase 2 (Homo sapiens, UniProt P34913); assay: Inhibition of human recombinant soluble epoxide hydrolase after 1 hr by fluorescence assay
T2 sequence (P34913 whole entry): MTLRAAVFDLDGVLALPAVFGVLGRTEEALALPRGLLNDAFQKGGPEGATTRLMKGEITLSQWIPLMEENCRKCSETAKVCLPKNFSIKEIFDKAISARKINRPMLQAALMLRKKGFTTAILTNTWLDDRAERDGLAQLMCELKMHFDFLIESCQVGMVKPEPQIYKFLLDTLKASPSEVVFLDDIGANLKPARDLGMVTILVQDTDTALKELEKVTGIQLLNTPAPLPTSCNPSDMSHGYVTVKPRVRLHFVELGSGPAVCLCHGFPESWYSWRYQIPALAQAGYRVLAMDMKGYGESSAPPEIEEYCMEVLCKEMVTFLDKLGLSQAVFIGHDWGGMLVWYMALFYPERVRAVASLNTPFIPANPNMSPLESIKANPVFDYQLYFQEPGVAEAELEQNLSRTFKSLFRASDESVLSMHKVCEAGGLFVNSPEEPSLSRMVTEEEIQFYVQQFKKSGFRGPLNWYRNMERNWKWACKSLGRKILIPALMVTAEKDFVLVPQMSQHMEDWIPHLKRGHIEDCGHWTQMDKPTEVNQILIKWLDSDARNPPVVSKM

[3] = Aqueous solubility of the compound at pH 7.4 after 90 mins; assay type: physicochemical
Liver microsome [4] = assay: Intrinsic clearance in rat liver microsomes measured per mg of protein at 1 uM after 30 mins by LC/MS/MS analysis; assay type: ADME; conditions: 0.5 h
Liver microsome [5] = assay: Intrinsic clearance in human liver microsomes measured per mg of protein at 1 uM after 30 mins by LC/MS/MS analysis; assay type: ADME; conditions: 0.5 h
Cytochrome P450 2C8 = target: T3, Cytochrome P450 2C8 (Homo sapiens, UniProt P10632); assay: Inhibition of CYP2C8 in human liver microsomes after 10 mins by LC/MS/MS analysis; assay type: ADME
T3 sequence (P10632 whole entry): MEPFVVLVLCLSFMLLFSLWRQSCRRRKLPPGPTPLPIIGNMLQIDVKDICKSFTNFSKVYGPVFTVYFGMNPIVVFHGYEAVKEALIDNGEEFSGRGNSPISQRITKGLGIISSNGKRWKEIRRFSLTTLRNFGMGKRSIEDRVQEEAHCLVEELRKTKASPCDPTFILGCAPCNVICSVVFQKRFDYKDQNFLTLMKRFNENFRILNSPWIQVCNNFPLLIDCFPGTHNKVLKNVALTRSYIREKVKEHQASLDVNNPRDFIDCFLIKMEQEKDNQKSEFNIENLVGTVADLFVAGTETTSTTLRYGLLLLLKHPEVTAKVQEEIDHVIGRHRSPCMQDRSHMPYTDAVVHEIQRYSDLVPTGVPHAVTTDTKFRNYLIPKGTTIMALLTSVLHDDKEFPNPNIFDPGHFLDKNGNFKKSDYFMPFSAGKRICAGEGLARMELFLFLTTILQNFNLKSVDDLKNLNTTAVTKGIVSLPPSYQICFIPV

Rattus norvegicus [6] = assay: Renoprotective activity in Sprague-Dawley rat DOCA-salt model assessed as decrease in urinary albumin excretion at 100 mg/kg, po measured on day 28 post last dose; assay type: functional, organism-based; design: dose 100 mg/kg; conditions: Urine
Cytochrome P450 2C19 = Cytochrome P450 2C19 (Homo sapiens, UniProt P33261); assay: Inhibition of CYP2C19 in human liver microsomes after 10 mins by LC/MS/MS analysis; assay type: ADME
Sequence of Cytochrome P450 2C19 (P33261 whole entry): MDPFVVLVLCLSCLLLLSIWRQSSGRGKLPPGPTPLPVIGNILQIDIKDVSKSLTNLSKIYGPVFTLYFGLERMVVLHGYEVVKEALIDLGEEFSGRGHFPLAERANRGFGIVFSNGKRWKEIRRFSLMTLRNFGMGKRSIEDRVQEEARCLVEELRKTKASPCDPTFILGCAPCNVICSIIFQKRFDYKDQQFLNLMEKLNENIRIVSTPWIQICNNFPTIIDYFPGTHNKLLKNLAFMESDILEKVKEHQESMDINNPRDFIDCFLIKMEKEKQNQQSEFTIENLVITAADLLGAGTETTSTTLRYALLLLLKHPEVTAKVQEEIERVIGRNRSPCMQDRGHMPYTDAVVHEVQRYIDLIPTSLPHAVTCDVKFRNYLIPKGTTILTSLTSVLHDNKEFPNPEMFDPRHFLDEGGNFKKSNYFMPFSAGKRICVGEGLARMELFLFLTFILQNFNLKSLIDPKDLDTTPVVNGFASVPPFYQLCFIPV

Rattus norvegicus [7] = assay: AUC in Sprague-Dawley rat at 10 mg/kg, po; assay type: ADME, organism-based, Plasma; design: dose 10 mg/kg, route oral; conditions: in vivo
Rattus norvegicus [8] = assay: Antihypertensive activity in Sprague-Dawley rat DOCA-salt model assessed as decrease in systolic blood pressure at 100 mg/kg, po measured on day 28 post last dose by tail-cuff method; assay type: functional, organism-based; design: dose 100 mg/kg; conditions: Artery
Rattus norvegicus [9] = assay: Ex vivo inhibition of soluble epoxide hydrolase in Sprague-Dawley rat whole blood assessed as inhibition of 14,15-DHET production at 100 mg/kg, po measured after 1 to 6 hrs by ELISA relative to vehicle-treated control; assay type: functional
Rattus norvegicus [10] = assay: Renal toxicity in Sprague-Dawley rat DOCA-salt model assessed as effect on N-acetyl-beta-D-glucosaminidase level at 100 mg/kg, po measured on day 28 post last dose; assay type: organism-based; design: dose 100 mg/kg, route oral; conditions: in vivo
Rattus norvegicus [11] = assay: Renoprotective activity in Sprague-Dawley rat DOCA-salt model assessed as decrease in urinary MCP-1 excretion at 100 mg/kg, po measured on day 28 post last dose; assay type: functional, organism-based; design: dose 100 mg/kg; conditions: Urine
Rattus norvegicus [12] = assay: Ex vivo inhibition of soluble epoxide hydrolase in po dosed Sprague-Dawley rat assessed as inhibition of 14,15-DHET production measured after 1 to 24 hrs by ELISA; assay type: functional, organism-based
Rattus norvegicus [13] = assay: Bioavailability in Sprague-Dawley rat at 1 mg/kg, iv and 10 mg/kg, po; assay type: ADME, organism-based; conditions: in vivo

Structure (SMILES): O=C(N[C@H]1C[C@@H]1c1ccccc1)N1CCC(Oc2ccc(-c3ccccc3)cc2)CC1 (racemic)
- IC50 [1]: 6.7 nM
- IC50 [2]: 12 nM

Structure (SMILES): O=C(N[C@H]1C[C@@H]1c1ccccc1)N1CCC(Oc2cnccn2)CC1 (racemic)
- IC50 [1]: 25.6 nM
- IC50 [2]: 26.7 nM

Structure (SMILES): O=C(N[C@H]1C[C@@H]1c1ccccc1)N1CCC(Oc2ccc(C(F)(F)F)cc2)CC1 (relative stereo)
- IC50 [1]: 8.9 nM
- IC50 [2]: 29.8 nM

Structure (SMILES): Cc1ccc(OC2CCN(C(=O)N[C@H]3C[C@@H]3c3ccccc3)CC2)cc1 (racemic)
- IC50 [1]: 6.8 nM
- IC50 [2]: 14.2 nM

Structure (SMILES): O=C(O)c1cccc(OC2CCN(C(=O)N[C@H]3C[C@@H]3c3ccccc3)CC2)c1 (racemic)
- solubility at 1.5 h [3]: > 150 µg/mL
- CLint (Liver microsome [4]): < 10 µL/min/mg
- CLint (Liver microsome [5]): < 10 µL/min/mg
- IC50 [1]: > 100 nM
- IC50 [2]: > 100 nM

Structure (SMILES): O=C(N[C@H]1C[C@@H]1c1ccccc1)N1CCC(Oc2cccc(Cl)c2)CC1 (racemic)
- IC50 [1]: 8 nM
- IC50 [2]: 12 nM

Structure (SMILES): O=C(N[C@H]1C[C@@H]1c1ccccc1)N1CCC(Oc2ccc(-c3nnn[nH]3)cc2)CC1 (racemic)
- IC50 (Cytochrome P450 2C8): 800 nM
- solubility at 1.5 h [3]: > 150 µg/mL
- CLint (Liver microsome [4]): < 10 µL/min/mg
- CLint (Liver microsome [5]): < 33 µL/min/mg
- IC50 [1]: 6.6 nM
- IC50 [2]: 3.3 nM

Structure (SMILES): O=C(O)Cc1ccc(OC2CCN(C(=O)N[C@H]3C[C@@H]3c3ccccc3)CC2)c(Cl)c1 (racemic)
- Activity (Rattus norvegicus [6]): Active
- IC50 (Cytochrome P450 2C8): > 50000 nM
- IC50 (Cytochrome P450 2C19): > 50000 nM
- solubility at 1.5 h [3]: > 150 µg/mL
- AUC (Rattus norvegicus [7]): 30400 ng·h/mL
- CLint (Liver microsome [4]): < 10 µL/min/mg
- Activity (Rattus norvegicus [8]): inactive
- CLint (Liver microsome [5]): < 10 µL/min/mg
- inhibition in vivo at 100 mg/kg (Rattus norvegicus [9]): < 20%
- Activity (Rattus norvegicus [10]): Non-toxic
- IC50 [1]: 6.6 nM
- Activity (Rattus norvegicus [11]): Active
- IC50 [2]: 4.3 nM
- inhibition (Rattus norvegicus [12]): Dose-dependent effect
- F (Rattus norvegicus [13]): 63%

Structure (SMILES): Cc1cccc(OC2CCN(C(=O)N[C@H]3C[C@@H]3c3ccccc3)CC2)c1 (racemic)
- IC50 [1]: 6.5 nM
- IC50 [2]: 8.9 nM

Structure (SMILES): O=C(N[C@H]1C[C@@H]1c1ccccc1)N1CCC(Oc2cccc(C(F)(F)F)c2)CC1 (racemic)
- IC50 [1]: 10.5 nM
- IC50 [2]: 15.8 nM

Structure (SMILES): Cc1ccccc1OC1CCN(C(=O)N[C@H]2C[C@@H]2c2ccccc2)CC1 (racemic)
- solubility at 1.5 h [3]: < 0.2 µg/mL
- IC50 [1]: 4.2 nM
- IC50 [2]: 3.1 nM

Structure (SMILES): O=C(O)c1ccc(OC2CCN(C(=O)N[C@H]3C[C@@H]3c3ccccc3)CC2)c(Cl)c1 (racemic)
- IC50 (Cytochrome P450 2C8): > 50000 nM
- IC50 (Cytochrome P450 2C19): > 50000 nM
- solubility at 1.5 h [3]: > 150 µg/mL
- AUC (Rattus norvegicus [7]): 15900 ng·h/mL
- CLint (Liver microsome [4]): < 10 µL/min/mg
- CLint (Liver microsome [5]): < 10 µL/min/mg
- IC50 [1]: 4.1 nM
- IC50 [2]: 2.6 nM
- F (Rattus norvegicus [13]): 31%

Structure (SMILES): O=C(O)c1ccc(OC2CCN(C(=O)N[C@H]3C[C@@H]3c3ccccc3)CC2)cc1 (racemic)
- solubility at 1.5 h [3]: > 150 µg/mL
- CLint (Liver microsome [4]): < 10 µL/min/mg
- CLint (Liver microsome [5]): < 10 µL/min/mg
- IC50 [1]: 32.2 nM
- IC50 [2]: 30.3 nM

Structure (SMILES): O=C(N[C@H]1C[C@@H]1c1ccccc1)N1CCC(Oc2ccccn2)CC1 (racemic)
- IC50 [1]: 35.4 nM
- IC50 [2]: 27.4 nM

Structure (SMILES): O=C(N[C@H]1C[C@@H]1c1ccccc1)N1CCC(Oc2cccnc2)CC1 (racemic)
- IC50 [1]: 20.2 nM
- IC50 [2]: 25.2 nM

Structure (SMILES): O=C(N[C@H]1C[C@@H]1c1ccccc1)N1CCC(OC(c2ccccc2)c2ccccc2)CC1 (racemic)
- IC50 [1]: 5.2 nM
- IC50 [2]: 27.1 nM

Structure (SMILES): O=C(N[C@H]1C[C@@H]1c1ccccc1)N1CCC(Oc2ccccc2)CC1 (racemic)
- IC50 [1]: 18.3 nM
- IC50 [2]: 18 nM

Structure (SMILES): O=C(O)c1ccccc1OC1CCN(C(=O)N[C@H]2C[C@@H]2c2ccccc2)CC1 (racemic)
- IC50 [1]: > 100 nM
- IC50 [2]: > 100 nM

Structure (SMILES): O=C(N[C@H]1C[C@@H]1c1ccccc1)N1CCC(Oc2ccccc2Cl)CC1 (racemic)
- IC50 [1]: 3.5 nM
- IC50 [2]: 2 nM

Structure (SMILES): O=C(N[C@H]1C[C@@H]1c1ccccc1)N1CCC(Oc2ccc(Cl)cc2)CC1 (racemic)
- IC50 [1]: 9.3 nM
- IC50 [2]: 22.4 nM

Structure (SMILES): O=C(N[C@H]1C[C@@H]1c1ccccc1)N1CCC(Oc2ccccc2C(F)(F)F)CC1 (racemic)
- IC50 [1]: 3.2 nM
- IC50 [2]: 2.1 nM

Structure (SMILES): O=C(N[C@H]1C[C@@H]1c1ccccc1)N1CCC(Oc2cccc(-c3ccccc3)c2)CC1 (racemic)
- IC50 [1]: 5.9 nM
- IC50 [2]: 10.7 nM

Structure (SMILES): O=C(N[C@H]1C[C@@H]1c1ccccc1)N1CCC(Oc2ccncc2)CC1 (racemic)
- IC50 [1]: 12.3 nM
- IC50 [2]: 24.4 nM

Structure (SMILES): O=C(N[C@H]1C[C@@H]1c1ccccc1)N1CCC(Oc2ncccn2)CC1 (racemic)
- IC50 [1]: > 100 nM
- IC50 [2]: 94.2 nM

Structure (SMILES): O=C(N[C@H]1C[C@@H]1c1ccccc1)N1CCC(Oc2ccccc2-c2ccccc2)CC1 (racemic)
- IC50 [1]: 20.7 nM
- IC50 [2]: 14.7 nM

Structure (SMILES): COc1cccc(OC2CCN(C(=O)N[C@H]3C[C@@H]3c3ccccc3)CC2)c1 (relative stereo)
- IC50 [1]: 5.1 nM
- IC50 [2]: 7.4 nM

Structure (SMILES): COc1ccccc1OC1CCN(C(=O)N[C@H]2C[C@@H]2c2ccccc2)CC1 (racemic)
- IC50 [1]: 12.8 nM
- IC50 [2]: 11.3 nM

Structure (SMILES): COc1ccc(OC2CCN(C(=O)N[C@H]3C[C@@H]3c3ccccc3)CC2)cc1 (racemic)
- IC50 [1]: 5 nM
- IC50 [2]: 10.2 nM

Structure (SMILES): O=C(O)Cc1ccc(OC2CCN(C(=O)N[C@H]3C[C@@H]3c3ccccc3)CC2)cc1 (relative stereo)
- solubility at 1.5 h [3]: > 150 µg/mL
- CLint (Liver microsome [4]): < 10 µL/min/mg
- CLint (Liver microsome [5]): < 33 µL/min/mg
- IC50 [1]: 56.6 nM
- IC50 [2]: 43.2 nM
